Measured values published in paper PMC10540603 (Biochemical and biophysical research communications, 2022).
Numbering of substitutions follows the chain as printed.

Key:
CquiOrco = biological target: T1, CquiOrco (Culex quinquefasciatus, UniProt Q309I4); assay: two-electrode voltage clamp, Xenopus oocytes; format: cell-based; details: agonist; coreceptor expressed alone; pH 7.6
T1 sequence (Q309I4 1-480): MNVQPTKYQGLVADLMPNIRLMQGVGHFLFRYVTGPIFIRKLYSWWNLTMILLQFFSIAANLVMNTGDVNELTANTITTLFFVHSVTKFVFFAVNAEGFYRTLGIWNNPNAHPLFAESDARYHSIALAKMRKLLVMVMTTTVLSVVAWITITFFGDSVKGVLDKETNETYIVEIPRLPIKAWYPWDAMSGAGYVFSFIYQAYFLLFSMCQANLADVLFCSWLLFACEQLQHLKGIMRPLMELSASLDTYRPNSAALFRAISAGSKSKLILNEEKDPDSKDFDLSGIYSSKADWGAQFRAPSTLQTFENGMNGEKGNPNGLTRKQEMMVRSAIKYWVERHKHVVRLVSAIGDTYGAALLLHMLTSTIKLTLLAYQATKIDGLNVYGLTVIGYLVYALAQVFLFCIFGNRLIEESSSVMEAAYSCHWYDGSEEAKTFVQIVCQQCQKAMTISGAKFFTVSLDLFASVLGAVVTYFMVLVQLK

CquiOR32/CquiOrco = biological target: T2, CquiOR32/CquiOrco (Culex quinquefasciatus, UniProt A0A0K0KUF8); assay: two-electrode voltage clamp, Xenopus oocytes; format: cell-based; details: 1 mM source dose, -80 mV, pH 7.6
T2 sequence (A0A0K0KUF8 1-397): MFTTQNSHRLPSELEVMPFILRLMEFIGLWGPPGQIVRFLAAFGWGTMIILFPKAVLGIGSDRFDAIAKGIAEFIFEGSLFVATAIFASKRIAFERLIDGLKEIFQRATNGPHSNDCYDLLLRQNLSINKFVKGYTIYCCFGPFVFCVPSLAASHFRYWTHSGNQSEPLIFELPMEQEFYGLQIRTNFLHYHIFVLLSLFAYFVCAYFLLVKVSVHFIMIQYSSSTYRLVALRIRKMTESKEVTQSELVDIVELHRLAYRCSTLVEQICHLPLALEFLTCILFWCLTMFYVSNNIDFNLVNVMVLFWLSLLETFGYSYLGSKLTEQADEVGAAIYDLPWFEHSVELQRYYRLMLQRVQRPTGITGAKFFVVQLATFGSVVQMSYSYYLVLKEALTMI
T2 sequence (UPI0018E3CDA7 1-480 partner): T1 sequence (Q309I4 1-480) with K267E, V399I

SMILES: CCn1c(SCC(=O)Nc2ccc(C(C)C)cc2)nnc1-c1ccncc1 [OLC12, 2-{[4-Ethyl-5-(4-pyridinyl)-4H-1,2,4-triazol-3-yl]sulfanyl}-N-(4-isopropylphenyl)acetamide]
- two-electrode voltage clamp, Xenopus oocytes (CquiOrco): CquiOrco-expressing oocytes generated inward currents when challenged with OLC12

SMILES: CC12CCC(C1)C(C)(C)C2=O (stereo not drawn) [fenchone]
- two-electrode voltage clamp, Xenopus oocytes (CquiOR32/CquiOrco; inhibitor, outward currents): more prominent than the outward currents elicited by fenchone and eucalyptol

SMILES: COC(=O)c1ccccc1O [methyl salicylate]
- two-electrode voltage clamp, Xenopus oocytes (CquiOR32/CquiOrco; agonist, inward currents): Methyl salicylate-elicited inward currents recorded with CquiOR32/CquiOrco-expressing oocytes
